Blank lines part the entries; values can stand above or below the molecule they belong to.
Key:
[1] = PAMPA-BBB (parallel artificial membrane permeability assay, porcine polar brain lipid extract); assay type: in vitro ADME
Protocol: (§1) For the PAMPA-BBB test, 5 μL of porcine polar brain lipid extract (PBLE) solution (16.0 mg PBLE + 8.0 mg cholesterol dissolved in 600.0 μL n-dodecane) was applied for each well of the 96-well polycarbonate-based filter donor plates (top plate) (Multiscreen™-IP, MAIPN4510, pore size 0.45 μm; Merck). For the PAMPA-GI assay, the wells of the top plate were coated with 5 μL of the mixture of 16.0 mg phosphatidylcholine + 8.0 mg cholesterol dissolved in 600.0 μL n-dodecane. A measure of 150.0 μL of aliquots of the filtrated donor solutions were placed on the membrane. The 96-well PTFE acceptor plates (bottom plates) (Multiscreen Acceptor Plate, MSSACCEPTOR; Merck), were filled with 300.0 μL buffer solution (0.01 M PBS buffer, pH 7.4). The donor plate was placed upon the acceptor plate, and both plates were incubated together at 37 °C for 4 h in a Heidolph Titramax 1000 Vibrating platform shaker (Heidolph, Schwabach, Germany).
(§2) After incubation, sandwich plates were separated and the concentrations of each compound in the starting donor solution and in the acceptor and donor wells were determined in triplicate by UHPLC-DAD method described above. […] The effective permeability and the membrane retention in the PAMPA-BBB and the PAMPA GI experiments were calculated by Equations (4)–(7), respectively:(4) Pe=−2.303/A(t−τSS)·VA·VD/VA+VD·lg1−VA+VD/1−MR·VD×CAt/CD0 (5) Pe=−2.303/A(t−τSS)·1/1+ra·lg−ra+1+ra/1−MR×CDt/CD0 where Pe is the effective permeability coefficient (cm/s), A is the filter area (0.24 cm^2), VD and VA are the volumes in the donor (0.15 cm^3) and acceptor phases (0.30 cm^3), t is the incubation time (s), τSS is the time (s) to reach steady-state (240 s), CD(t) is the concentration (mol/cm^3) of the compound in the donor phase at time t, CD(0) is the concentration (mol/cm^3) of the compound in the donor phase at time 0, and MR is the estimated membrane retention factor (the estimated mole fraction of solute lost to the membrane), ra is the sink asymmetry ratio (gradient-pH-induced), defined as:(6) ra=VD/VA×Pe(A→D)/Pe(D→A) (7) MR=1−CDt/CD0−VA/VDCAt/CD0
(§3) All experiments were performed in three triplicates on three consecutive days (n = 9), caffeine standard was used as positive, while rutin as negative control. ClogP values were calculated by ChemAxon Marvin 22.3.

[2] = chemical stability in the aqueous solutions/buffer of the PAMPA experiments (UHPLC-DAD)
Protocol: Quantities of the isolated compounds in the PAMPA experiments (14, 58, 74, 86, 92, 106, 141, and 143) were determined by UHPLC-DAD. The Juglans extracts were analyzed by an ACQUITY UPLC H-Class PLUS System equipped with a quaternary solvent delivery pump (QSM), an auto-sampler manager (FTN), a column compartment (CM), and a photodiode array (PDA) detector (Waters Corporation). An Acquity BEH C18 column (100 × 2.1 mm i.d., 1.7 µm; Waters Corporation) maintained at 30 °C was used as stationary phase. Eluent A was 0.3% acetic acid in water and eluent B was acetonitrile, the following gradient elution was applied (flow rate: 0.3 mL/min): 5.0–100.0% B (0.0–11.0 min), 100.0–5.0% B (11.0–11.5 min), 5% B (11.5–15.0 min). The injection volume was 5 µL and chromatograms were recorded at 200–400 nm. The chromatograms acquired at the UV absorption maxima of each compound were used for data evaluation.
Stock solutions (10 mM in methanol) were diluted with the defined buffer (pH 7.4 for the PAMPA-BBB and pH 6.8 for the PAMPA-GI assays) to obtain the donor solutions (composition: 594.0 μL buffer + 6.0 μL stock solution). The buffers were prepared as follows: pH = 6.8: 20.2 g Na2HPO4 ∙ 7H2O and 3.4 g NaH2PO4 ∙ H2O dissolved in distilled water to achieve the final volume of 1000.0 mL, pH adjustment with 0.5 M NaOH or 0.5 M HCl; pH = 7.4: one PBS tablet (Phosphate Buffered Saline, pH 7.4; Sigma Aldrich) dissolved in 200.0 mL distilled water. Donor solutions were filtered through Phenex-RC 15 mm, 0.2 μm syringe filters (Gen-Lab Ltd., Budapest, Hungary).

[3] = tested on: Vero E6 non-tumorous kidney cells; assay: selectivity study: cytostatic activity on non-tumorous Vero E6 cells, Alamar Blue assay; assay type: cell-based, African green monkey (C. sabaeus); conditions: Vero E6 non-tumorous kidney cells
Protocol: (§4) To determine the selectivity, we assessed the compounds on the Vero E6 non-tumorous kidney cells from African green monkeys (C. sabaeus), and their cytostatic activity was determined (Table 3).
(§5) For the selectivity study, a non-human primate cell culture was used. Vero E6 cells were established from kidney tissue sampled from an African green monkey (C. sabaeus) They originated from a primary culture initiated in March 1962 by Yoshihiro Yasumura at Chiba University in Japan. Vero E6 cells were obtained from the European Collection of Authenticated Cell Cultures (ECACC 85020206) and maintained in DMEM high-glucose (4.5 g/L) medium (Lonza, Basel, Switzerland) containing 10% FBS (Gibco, Thermo Fisher Scientific) and supplemented with 2 mM of L-glutamine (Lonza), 1 mM sodium pyruvate (Merck), and CellCultureGuard (PanReacApplichem, ITW Reagents, Darmstadt, Germany) at 37 °C in a humidified atmosphere of 5% CO2.
(§6) All cell cultures were maintained at 37 °C in a humidified atmosphere with 5% CO2. The cells were grown to confluence and then divided into 96-well tissue culture plates with the initial cell number of 5.0 × 10^3 cells/well. […] Control cells were treated with serum-free medium or DMSO (c = 1.0 v/v %) at the same conditions. After this incubation period, cells were washed twice with serum-free medium, and following that, they were cultured for another 72 h in a 10% serum-containing medium at 37 °C. After that, cell viability was determined using the Alamar Blue assay. Alamar Blue is a non-toxic, resazurin-based dye that living cells reduce to a fluorescent molecule, resorufin [99]. Resazurin sodium salt (Merck, Darmstadt, Germany) was dissolved in PBS at c = 0.15 mg/mL, pH 7.4). A measure of 22 uL of the dye was added to each well and incubated at 37 °C for 3 h until the pink color of the reduced dye appeared. Fluorescence intensity in each well was measured using a Synergy H4 multimode microplate reader (BioTek, Winooski, VT); at λex = 530/30 and λem = 610/10 nm.
(§7) The cytostasis values were expressed in the percentage of untreated control.

[4] = tested on: A2058 human melanoma cells; assay: in vitro cytostatic (antiproliferative) activity, Alamar Blue (resazurin) assay, A2058; assay type: cell-based
Protocol: (§8) For the evaluation of the in vitro antiproliferative activity of the compounds, the cell viability was determined by resazurin (Alamar Blue) assay on MDA-MB 231 breast carcinoma, A2058 melanoma, and HT-29 colon carcinoma cell culture. The control wells were treated only with serum-free medium.
(§9) The cytostatic effect of the compounds was studied on tumor cell cultures in vitro. MDA-MB-231 human breast adenocarcinoma cells were cultured in DMEM medium supplemented with 10% FBS, 2 mM L-glutamine, penicillin–streptomycin antibiotics mixture (50 IU/mL, and 50 μg/mL, respectively), 1 mM sodium pyruvate, and 1% non-essential amino acid mixture. A2058 human melanoma cells, and HT-29 colorectal carcinoma cells were cultured in RPMI medium supplemented with 10% FBS, 2 mM L-glutamine, and penicillin–streptomycin antibiotics mixture (50 IU/mL and 50 μg/mL, respectively). Cell lines were generous gifts from Dr. József Tóvári (Department of Experimental Pharmacology, National Institute of Oncology, Budapest, Hungary).
as §6, §7

[5] = PAMPA-GI (parallel artificial membrane permeability assay, phosphatidylcholine membrane); assay type: in vitro ADME
Protocol: as §1, §2, §3

[6] = tested on: HT-29 colorectal carcinoma cells; assay: in vitro cytostatic (antiproliferative) activity, Alamar Blue (resazurin) assay, HT-29; assay type: cell-based; conditions: Homo sapiens; in vitro cytostatic activity, Alamar Blue (resazurin) assay, HT-29 colon carcinoma cell culture; read-out: IC50 (µM) HT-29
Protocol: as §8, §9, §6, §7

[7] = tested on: MDA-MB-231 human breast adenocarcinoma cells; assay: in vitro cytostatic (antiproliferative) activity, Alamar Blue (resazurin) assay, MDA-MB 231; assay type: cell-based; conditions: in vitro cytostatic activity, Alamar Blue (resazurin) assay, MDA-MB 231 breast carcinoma cell culture, read-out: IC50 (µM) MDA-MB 231
Protocol: as §8, §9, §6, §7

cell culture = tested on: cell culture; parameters: method as in PMID 34217043; conditions: read-out: concentration causing 50% inhibition; depending on cell culture; cited from earlier work
[8] = tested on: MDA-MB 231, A2058, HT-29 and Vero E6 cells; assay: in vitro cytostasis, Alamar Blue assay, cell lines taken together; assay type: cell-based; conditions: tumor cell lines (MDA-MB 231, A2058, HT-29)
Protocol: as §8, §4, §9, §5, §6, §7

Papp at 4 h, 100 µM ([1]; pig, PAMPA, pH 7.4, read-out: logPe PAMPA-BBB (n = 9) (converted)): 1.7 ×10⁻⁶ cm/s
additional minor compounds appeared in the aqueous solutions prepared for the PAMPA experiments ([2]; PAMPA, 100 µM): < 5%
IC50 ([4]; in vitro cytostatic activity, Alamar Blue (resazurin) assay, A2058 melanoma cell culture, read-out: IC50 (µM) A2058): 102.5 ± 0.7 µM
Papp at 4 h, 100 µM ([5]; PAMPA, read-out: logPe PAMPA-GI (n = 9) (converted)): 3.72 ×10⁻⁶ cm/s
IC50 [6]: > 100 µM
IC50 [7]: > 100 µM
Compound: CCOC(=O)c1cc(O)c(O)c(O)c1 [Compound 58, ethyl gallate]
IC50 ([3]; Chlorocebus sabaeus, Vero C1008, in vitro cytostatic activity, Alamar Blue assay, read-out: IC50 (µM) VERO E6 Non Tumorous): 82.1 ± 5.7 µM
inhibition at 100 µM ([4]; read-out: % inhibition at 100 µM, 100 µM, A2058 cell culture): 56.4%

Compound: C/C=C/C1=CC=C/C(=C2\C(=O)CNC2=O)O1 [vermelhotin]
IC50 (cell culture): 12 to 20 µM

logPe PAMPA-BBB (n = 9) ([1]; donor pH 7.4, acceptor pH 7.4, 37 °C, 4 h, n.d. = not detected in the acceptor phase): not detected in the acceptor phase
degradation in the pH 7.4 buffer ([2]; pH 7.4): significant degree of degradation
logPe PAMPA-GI (n = 9) ([5]; donor pH 6.8, acceptor pH 7.4, 37 °C, 4 h, n.d. = not detected in the acceptor phase): not detected in the acceptor phase
Compound: O=c1c(O[C@@H]2OC[C@@H](O)[C@H](O)[C@H]2O)c(-c2ccc(O)c(O)c2)oc2cc(O)cc(O)c12 [Compound 74, quercetin-3-O-xyloside (reynoutrin)]
IC50 (cytostatic activity) on the Vero E6 cells ([3]; selectivity): not cytostatic
effect on the tumor cell lines [8]: no effect

Source: paper PMC11241769, “Comprehensive Characterization of Phytochemical Composition, Membrane Permeability, and Antiproliferative Activity of Juglans nigra Polyphenols” (International Journal of Molecular Sciences, 2024)
